# Test results: US9744148B2, “Kallikrein 7 inhibitors” (SIXERA PHARMA AB, priority 2014, dated 2017)
# Biological target: Active human KLK7 (SCCE) (Homo sapiens (Human), UniProt P49862)
# Test: KLK7 Inhibitor Test
# Format: biochemical
# Conditions: substrate MeO-Suc-Arg-Pro-Tyr-pNA, pH 7.2, 37° C., absorbance at 405 nm
# Procedure: KLK7 Inhibitor Test Substrate:(MeO-Suc-[…]), acetate salt, Peptide international, lot #906841, previously named S-2586 Enzyme: […] Buffer: 10 mM NaPhospate, 0.5 M NaCl, pH 7.2 […] 10 μl of substance in DMSO was added to wells giving final concentrations of 20 μ[…], and 0.15625 μM. 40 μl of active KLK7 (SCCE) (diluted to 12.5 μg/ml in activity buffer) was added all wells except blank to which activity buffer was added. […] The mean value V of each sample was calculated (n=2 for the substances and n=4 for the control). From the values of V the % of total activity was calculated as (Vinhibitor/Vcontrol (no inhibitor))×100. Plotting and calculation was then done in originPro. % of total activity (y) was plotted vs. log [inhibitor] (log x) and a function of dose response y=A1+(A2-A1)/(1+10^((LOG(x0)-x)*p)) where A1=Bottom platue, A2=Top platue, x0=EC50 and p=Hill slope was fitted to the curve. […] The IC50 values were used to identify KLK7 inhibitors according to the invention.
# Sequence of Active human KLK7 (SCCE) (P49862 30-253): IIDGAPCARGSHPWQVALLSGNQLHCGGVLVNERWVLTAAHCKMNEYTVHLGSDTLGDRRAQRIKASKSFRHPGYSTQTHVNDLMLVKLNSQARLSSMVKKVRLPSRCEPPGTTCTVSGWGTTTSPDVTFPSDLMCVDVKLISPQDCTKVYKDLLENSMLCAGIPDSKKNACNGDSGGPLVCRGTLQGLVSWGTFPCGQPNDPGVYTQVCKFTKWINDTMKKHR
row,Structure (SMILES),IC50
1,"Cc1cc(NC(=O)C(OC(=O)C(c2ccccc2)c2ccccc2)c2ccccc2)no1 (stereo not shown) [Compound 54, [2-[(5-methylisoxazol-3-yl)amino]-2-oxo-1-phenyl-ethyl] 2,2-diphenylacetate]",1.1 µM
2,O=C(COC(=O)CCC1CCCC1)Nc1ccccc1 [Compound 55],1.11 µM
3,COc1ccc(CC(=O)OC(C(=O)Nc2ccc(F)cc2)c2ccccc2)cc1 (stereo not shown) [Compound 56],1.17 µM
4,COc1ccc(NC(=O)C(C)OC(=O)C(c2ccccc2)c2ccccc2)cc1 (stereo not shown) [Compound 57],1.18 µM
5,Cc1cc(NC(=O)COC(=O)CCC2CCCC2)no1 [Compound 58],1.2 µM
6,"COc1ccc(NC(=O)COC(=O)C(NC(=O)c2ccccc2)c2ccccc2)cc1 (stereo not shown) [Compound 59, [2-(4-methoxyanilino)-2-oxo-ethyl] 2-benzamido-2-phenyl-acetate]",1.23 µM
7,"Cc1cc(NC(=O)COC(=O)C(NC(=O)c2ccccc2)c2ccccc2)no1 (stereo not shown) [Compound 60, [2-[(5-methylisoxazol-3-yl)amino]-2-oxo-ethyl] 2-benzamido-2-phenyl-acetate]",1.47 µM
8,"O=C(COC(=O)C(NC(=O)c1ccccc1)c1ccccc1)Nc1ccc(F)cc1 (stereo not shown) [Compound 61, [2-(4-fluoroanilino)-2-oxo-ethyl] 2-benzamido-2-phenyl-acetate]",1.51 µM
9,"O=C(COC(=O)C(NC(=O)c1ccccc1)c1ccccc1)Nc1ccccc1 (stereo not shown) [Compound 62, (2-anilino-2-oxo-ethyl) 2-benzamido-2-phenyl-acetate]",1.56 µM
10,CC(OC(=O)C(c1ccccc1)c1ccccc1)C(=O)Nc1ccc(F)cc1 (stereo not shown) [Compound 63],1.62 µM
11,"CCC(OC(=O)C(NC(=O)c1ccccc1)c1ccccc1)C(=O)Nc1ccc(OC)cc1 (stereo not shown) [Compound 64, 1-[(4-methoxyphenyl)carbamoyl]propyl 2-benzamido-2-phenyl-acetate]",1.7 µM
12,"CCC(OC(=O)C(NC(=O)c1ccccc1)c1ccccc1)C(=O)Nc1ccc(F)cc1 (stereo not shown) [Compound 65, 1-[(4-fluorophenyl)carbamoyl]propyl 2-benzamido-2-phenyl-acetate]",1.79 µM
13,"CC(OC(=O)C(NC(=O)c1ccccc1)c1ccccc1)C(=O)Nc1ccccc1 (stereo not shown) [Compound 66, (2-anilino-1-methyl-2-oxo-ethyl) 2-benzamido-2-phenyl-acetate]",1.85 µM
14,COc1ccc(CC(=O)OCC(=O)Nc2ccc(F)cc2)cc1 [Compound 67],2.28 µM
15,COc1ccc(CC(=O)OCC(=O)Nc2ccc(OC)cc2)cc1 [Compound 68],2.31 µM
16,Cc1cc(NC(=O)COC(=O)CCC2CCCC2)no1 [Compound 69],2.7 µM
17,"Cc1cc(NC(=O)C(OC(=O)Cc2ccc(Cl)cc2)C(C)C)no1 (stereo not shown) [Compound 70, [2-methyl-1-[(5-methylisoxazol-3-yl)carbamoyl]propyl] 2-(4-chlorophenyl)acetate]",2.7 µM
18,"COc1ccc(NC(=O)C(C)OC(=O)C(NC(=O)c2ccccc2)c2ccccc2)cc1 (stereo not shown) [Compound 71, [2-(4-methoxyanilino)-1-methyl-2-oxo-ethyl] 2-benzamido-2-phenyl-acetate]",2.76 µM
19,"Cc1cc(NC(=O)C(OC(=O)CCC2CCCC2)C(C)C)no1 (stereo not shown) [Compound 72, [2-methyl-1-[(5-methylisoxazol-3-yl)carbamoyl]propyl] 3-cyclopentylpropanoate]",2.78 µM
20,Cc1cc(NC(=O)COC(=O)Cc2ccc(Cl)cc2)no1 [Compound 73],2.9 µM
21,COc1ccc(CC(=O)OCC(=O)Nc2cc(C)on2)cc1 [Compound 74],3.05 µM
22,"Cc1cc(NC(=O)C(OC(=O)C(NC(=O)c2ccccc2)c2ccccc2)C(C)C)no1 (stereo not shown) [Compound 75, [2-methyl-1-[(5-methylisoxazol-3-yl)carbamoyl]propyl] 2-benzamido-2-phenyl-acetate]",3.26 µM

row,Structure (SMILES),IC50
1,"O=C(NC(C(=O)OC(C(=O)Nc1ccccc1)c1ccccc1)c1ccccc1)c1ccccc1 (stereo not shown) [Compound 76, (2-anilino-2-oxo-1-phenyl-ethyl) 2-benzamido-2-phenyl-acetate]",3.34 µM
2,COc1ccc(CC(=O)OCC(=O)Nc2ccccc2)cc1 [Compound 77],3.89 µM
3,"COc1ccc(NC(=O)C(OC(=O)C(c2ccccc2)c2ccccc2)c2ccccc2)cc1 (stereo not shown) [Compound 78, [2-(4-methoxyanilino)-2-oxo-1-phenyl-ethyl] 2,2-diphenylacetate]",4.33 µM
4,"Cc1cc(NC(=O)C(OC(=O)C(c2ccccc2)c2ccccc2)C(C)C)no1 (stereo not shown) [Compound 79, [2-methyl-1-[(5-methylisoxazol-3-yl)carbamoyl]propyl] 2,2-diphenylacetate]",4.56 µM
5,Cc1cc(NC(=O)COC(=O)C(c2ccccc2)c2ccccc2)no1 [Compound 80],4.7 µM
6,"Cc1cc(NC(=O)COC(=O)Cc2ccc(Cl)cc2)no1 [Compound 81, [2-[(5-methylisoxazol-3-yl)amino]-2-oxo-ethyl] 2-(4-chlorophenyl)acetate]",5 µM
7,CCC(OC(=O)C(CCSC)NC(=O)c1ccccc1)C(=O)Nc1cc(C)on1 (stereo not shown) [Compound 82],5.5 µM
8,"CC(OC(=O)C(NC(=O)c1ccccc1)c1ccccc1)C(=O)NCc1ccccc1 (stereo not shown) [Compound 83, [2-(benzylamino)-1-methyl-2-oxo-ethyl] 2-benzamido-2-phenyl-acetate]",5.89 µM
9,"COc1ccc(CC(=O)OC(C(=O)Nc2cc(C)on2)C(C)C)cc1 (stereo not shown) [Compound 84, [2-methyl-1-[(5-methylisoxazol-3-yl)carbamoyl]propyl] 2-(4-methoxyphenyl)acetate]",6.25 µM
10,CCC(OC(=O)C(NC(=O)c1ccccc1)c1ccccc1)C(=O)Nc1cc(C)on1 (stereo not shown) [Compound 85],6.43 µM
11,Cc1cc(NC(=O)COC(=O)C(c2ccccc2)c2ccccc2)no1 [Compound 86],6.64 µM
12,COc1ccc(NC(=O)COC(=O)C(c2ccccc2)c2ccccc2)cc1 [Compound 87],7.39 µM
13,O=C(COC(=O)C(c1ccccc1)c1ccccc1)Nc1ccc(F)cc1 [Compound 88],8.49 µM
14,CCC(OC(=O)C(CC(C)C)NC(=O)c1ccccc1)C(=O)Nc1cc(C)on1 (stereo not shown) [Compound 89],9.1 µM
15,O=C(COC(=O)C(c1ccccc1)c1ccccc1)Nc1ccccc1 [Compound 90],11.2 µM
16,"CC(C)C(OC(=O)Cc1ccc(Cl)cc1)C(=O)Nc1ccccc1 (stereo not shown) [Compound 91, [2-methyl-1-(phenylcarbamoyl)propyl] 2-(4-chlorophenyl)acetate]",4.1 µM
17,"COc1ccc(NC(=O)C(OC(=O)Cc2ccc(Cl)cc2)C(C)C)cc1 (stereo not shown) [Compound 92, [1-[(4-methoxyphenyl)carbamoyl]-2-methyl-propyl] 2-(4-chlorophenyl)acetate]",3.8 µM
18,"CC(C)C(OC(=O)C(NC(=O)c1ccccc1)c1ccccc1)C(=O)Nc1ccccc1 (stereo not shown) [Compound 93, [2-methyl-1-(phenylcarbamoyl)propyl] 2-benzamido-2-phenyl-acetate]",2.3 µM
19,"COc1ccc(CC(=O)OC(C(=O)Nc2ccccc2)C(C)C)cc1 (stereo not shown) [Compound 94, [2-methyl-1-(phenylcarbamoyl)propyl] 2-(4-methoxyphenyl)acetate]",3.6 µM
20,"COc1ccc(NC(=O)C(OC(=O)C(NC(=O)c2ccccc2)c2ccccc2)C(C)C)cc1 (stereo not shown) [Compound 95, [1-[(4-methoxyphenyl)carbamoyl]-2-methyl-propyl] 2-benzamido-2-phenyl-acetate]",6.3 µM
21,"CC(C)C(OC(=O)C(NC(=O)c1ccccc1)c1ccccc1)C(=O)Nc1ccc(F)cc1 (stereo not shown) [Compound 96, [1-[(4-fluorophenyl)carbamoyl]-2-methyl-propyl] 2-benzamido-2-phenyl-acetate]",3.7 µM
